Experimental data taken from patent publication US10800785B2, “Substituted pyrrolo[2,3-d]pyridazin-4-ones and pyrazolo[3,4-d]pyridazin-4-ones as protein kinase inhibitors” (Shanghai Fochon Pharmaceutical Co., Ltd., priority 2016, dated 2020).

These molecules were tested on DOHH2 cells (assay: Cell proliferation assay (MTS) in DOHH2 cells, mechanism-based assay for BTK inhibition). Conditions: Homo sapiens, DOHH-2, 120 h incubation, 5000 cells/well.
Method in brief: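 DOHH2 cells (5000/well) were plated in RPMI-1640 with 10% FBS, left overnight, then exposed 120 h at 37° C, 5% CO2 to compound at 1.5–10000 nM final (nine levels). Proliferation was read by MTS, incubated exactly 2 h and stopped with SDS, as a measure of cellular BTK inhibition.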
For `COC/C=C/C(=O)N1CCC[C@@H](c2cn(-c3ccc(Oc4ccccc4F)cc3)c3c(N)n[nH]c(=O)c23)C1` [Example 102, (S,E)-7-amino-1-(4-(2-fluorophenoxy)phenyl)-3-(1-(4-methoxybut-2-enoyl)piperidin-3-yl)-1,5-dihydro-4H-pyrrolo[2,3-d]pyridazin-4-one], the IC50 was 319 nM. Molecule `C=CC(=O)N1CC[C@@H](c2nn(-c3ccc(Oc4ccccc4F)cc3)c3c(N)n[nH]c(=O)c23)C1` [Example 41, (R)-3-(1-acryloylpyrrolidin-3-yl)-7-amino-1-(4-(2-fluorophenoxy)phenyl)-1,5-dihydro-4H-pyrazolo[3,4-d]pyridazin-4-one] has an IC50 of 146 nM. Work on `C=CC(=O)N1CCC(c2nn(-c3ccc(Oc4c(F)cccc4F)cc3)c3c(N)n[nH]c(=O)c23)C1` (stereo not shown) [Example 7, 3-(1-acryloylpyrrolidin-3-yl)-7-amino-1-(4-(2,6-difluorophenoxy)phenyl)-1,5-dihydro-4H-pyrazolo[3,4-d]pyridazin-4-one] yielded an IC50 of 182 nM. `C=CC(=O)N1CC[C@@H](c2nn(-c3ccc(C(=O)Nc4ccccn4)cc3)c3c(N)n[nH]c(=O)c23)C1` [Example 90, (R)-4-(3-(1-acryloylpyrrolidin-3-yl)-7-amino-4-oxo-4,5-dihydro-1H-pyrazolo[3,4-d]pyridazin-1-yl)-N-(pyridin-2-yl)benzamide] was tested, and the IC50 was 580 nM. `C=CC(=O)N1CC(c2cn(-c3ccc(Oc4ccccc4)cc3)c3c(N)n[nH]c(=O)c23)C1` [Example 114, 3-(1-acryloylazetidin-3-yl)-7-amino-1-(4-phenoxyphenyl)-1,5-dihydro-4H-pyrrolo[2,3-d] pyridazin-4-one] gave an IC50 of 473 nM. `C=CC(=O)N1CC[C@H](c2cn(-c3ccc(Oc4cccc(F)c4)cc3)c3c(N)n[nH]c(=O)c23)C1` [Example 24, (R)-3-(1-acryloylpyrrolidin-3-yl)-7-amino-1-(4-(3-fluorophenoxy)phenyl)-1,5-dihydro-4H-pyrrolo[2,3-d]pyridazin-4-one] gave an IC50 of 373 nM. For `C=CC(=O)N1CC[C@@H](c2nn(-c3ccc(Oc4cccc(F)c4F)cc3)c3c(N)n[nH]c(=O)c23)C1` [Example 44, (R)-3-(1-acryloylpyrrolidin-3-yl)-7-amino-1-(4-(2,3-difluorophenoxy)phenyl)-1,5-dihydro-4H-pyrazolo[3,4-d]pyridazin-4-one], the IC50 was 113 nM.
